Test results published in ChEMBL document CHEMBL1201862, “PubChem BioAssay data set” (2004).
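These data come from cells grown in 96-well plates and exposed to compound for 48 hours at five concentrations. GI50 is the concentration that inhibits growth by half.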 Active and inactive are the calls of the source. Cut-off read from the data, not from the text of the source: active = GI50 up to about 1.1 µM and inactive = higher. Where a SMILES comes first, the peptide text is derived from it. [ ]: non-standard residue; d: D form. The star is where a group is joined. Phe(4-NO2) = N[CH](Cc1ccc([N+](=O)[O-])cc1)C(=O)O; Boc = CC(C)(C)OC(=O)*; OtBu = CC(C)(C)O*

Key:
Assay in all cases: NCI-60 cell line screen, 48 h
OVCAR-5 = tested on: OVCAR-5
MCF7 = tested on: MCF7
MDA-MB-435 = tested on: MDA-MB-435
UO-31 = tested on: UO-31
ACHN = tested on: ACHN
BT-549 = tested on: BT-549
MDA-N = tested on: MDA-N
DU-145 = tested on: DU-145
NCI-H226 = tested on: NCI-H226
COLO 205 = tested on: COLO 205
T47D = tested on: T47D
IGROV-1 = tested on: IGROV-1
EKVX = tested on: EKVX
SF-539 = tested on: SF-539
SK-MEL-28 = tested on: SK-MEL-28
SNB-75 = tested on: SNB-75
HCT-116 = tested on: HCT-116
CCRF-CEM = tested on: CCRF-CEM
Hs-578T = tested on: Hs-578T
SR = tested on: SR

Measured: GI50

CC(=O)/C(=C/n1ccc(=O)[nH]c1=S)C(=O)Nc1ccccc1C
inactive: OVCAR-5 > 100 µM | MCF7 > 100 µM | MDA-MB-435 > 100 µM | UO-31 > 100 µM | ACHN > 100 µM | BT-549 > 100 µM | MDA-N > 100 µM | DU-145 > 100 µM | NCI-H226 > 100 µM | COLO 205 > 100 µM | T47D > 100 µM | IGROV-1 > 100 µM | EKVX > 100 µM | SF-539 > 100 µM | SK-MEL-28 > 100 µM | SNB-75 > 100 µM | HCT-116 > 100 µM

O=NC1C(Cl)C2CC1C1C(Br)C(Br)CC21 (centres undefined)
inactive: CCRF-CEM 62.7 µM | OVCAR-5 > 100 µM | MCF7 > 100 µM | Hs-578T > 100 µM | MDA-MB-435 > 100 µM | UO-31 > 100 µM | SR 48.9 µM | ACHN > 100 µM | DU-145 > 100 µM | NCI-H226 > 100 µM | COLO 205 > 100 µM | T47D > 100 µM | IGROV-1 > 100 µM | EKVX > 100 µM | SF-539 > 100 µM | SK-MEL-28 > 100 µM | SNB-75 > 100 µM | HCT-116 > 100 µM

O=c1c2cc(-c3ccccc3)cnc2sn1-c1ccc(Br)cc1
inactive: CCRF-CEM 95.5 µM | OVCAR-5 > 100 µM | MCF7 > 100 µM | MDA-MB-435 > 100 µM | UO-31 > 100 µM | SR > 100 µM | ACHN > 100 µM | BT-549 > 100 µM | MDA-N > 100 µM | DU-145 > 100 µM | NCI-H226 > 100 µM | COLO 205 > 100 µM | T47D > 100 µM | IGROV-1 58.1 µM | EKVX > 100 µM | SF-539 > 100 µM | SK-MEL-28 > 100 µM | SNB-75 > 100 µM | HCT-116 > 100 µM

C=C=C(C)[Si](C)(C)C
inactive: CCRF-CEM > 100 µM | OVCAR-5 > 100 µM | MCF7 > 100 µM | Hs-578T > 100 µM | MDA-MB-435 > 100 µM | UO-31 > 100 µM | SR > 100 µM | ACHN > 100 µM | MDA-N > 100 µM | DU-145 > 100 µM | NCI-H226 > 100 µM | COLO 205 > 100 µM | T47D > 100 µM | IGROV-1 71.1 µM | SF-539 > 100 µM | SK-MEL-28 > 100 µM | SNB-75 96.2 µM | HCT-116 > 100 µM

Cc1c(-c2ccccn2)ccc2ccccc12
inactive: CCRF-CEM 28.2 µM | OVCAR-5 > 100 µM | MCF7 88.7 µM | Hs-578T > 100 µM | MDA-MB-435 48.5 µM | UO-31 32.7 µM | SR 56.1 µM | ACHN 52.7 µM | MDA-N 61 µM | DU-145 > 100 µM | NCI-H226 43 µM | COLO 205 41.4 µM | T47D 39.2 µM | EKVX 52.6 µM | SF-539 > 100 µM | SK-MEL-28 85.5 µM | SNB-75 27.9 µM | HCT-116 43.4 µM

CCN(CC)CCNc1nc2ccc([N+](=O)[O-])cc2[n+]([O-])n1
inactive: CCRF-CEM 27 µM | OVCAR-5 16 µM | MCF7 2.24 µM | MDA-MB-435 16.1 µM | UO-31 37.6 µM | SR 18.4 µM | ACHN 36.8 µM | BT-549 73.8 µM | MDA-N 14.9 µM | DU-145 34.2 µM | NCI-H226 83 µM | COLO 205 2.84 µM | T47D 20.1 µM | IGROV-1 15.7 µM | SF-539 23.3 µM | SK-MEL-28 71.6 µM | SNB-75 29.3 µM | HCT-116 15.7 µM

N=C(N)NCCCC(NC(=O)c1c2ccccc2nc2ccccc12)C(=O)O (centres undefined)
inactive: CCRF-CEM > 100 µM | OVCAR-5 > 100 µM | MCF7 > 100 µM | MDA-MB-435 > 100 µM | UO-31 > 100 µM | SR > 100 µM | ACHN > 100 µM | BT-549 > 100 µM | MDA-N > 100 µM | DU-145 > 100 µM | NCI-H226 > 100 µM | COLO 205 > 100 µM | IGROV-1 > 100 µM | EKVX > 100 µM | SF-539 > 100 µM | SK-MEL-28 > 100 µM | SNB-75 > 100 µM | HCT-116 > 100 µM

NC1=C(N2CCCCC2)C(=O)NC2=N/C(=C\c3ccccc3)C(=O)N21
inactive: CCRF-CEM > 100 µM | OVCAR-5 > 100 µM | MCF7 > 100 µM | Hs-578T > 100 µM | MDA-MB-435 > 100 µM | UO-31 > 100 µM | SR 43.7 µM | ACHN > 100 µM | MDA-N > 100 µM | DU-145 > 100 µM | NCI-H226 > 100 µM | COLO 205 > 100 µM | T47D > 100 µM | IGROV-1 > 100 µM | EKVX 92.9 µM | SF-539 > 100 µM | SK-MEL-28 > 100 µM | SNB-75 > 100 µM | HCT-116 > 100 µM

N=C(N)N/N=C/c1cc(Cl)cc(Cl)c1O
inactive: CCRF-CEM 43.4 µM | OVCAR-5 78.2 µM | MCF7 44.6 µM | Hs-578T 55.7 µM | MDA-MB-435 53.5 µM | UO-31 29.7 µM | ACHN 56.6 µM | MDA-N 71.1 µM | DU-145 75 µM | NCI-H226 46.6 µM | COLO 205 34.2 µM | T47D 32.2 µM | IGROV-1 > 100 µM | EKVX 38.9 µM | SF-539 37.3 µM | SK-MEL-28 86.9 µM | SNB-75 30.2 µM | HCT-116 57 µM

Fc1cc(C2=Nn3c(COc4ccccc4Cl)nnc3S/C2=C\c2ccc(Cl)cc2)c(Cl)cc1Cl
inactive: CCRF-CEM 9.04 µM | OVCAR-5 3.96 µM | MCF7 5.14 µM | Hs-578T 11.8 µM | MDA-MB-435 2.26 µM | UO-31 6.4 µM | SR 4.39 µM | ACHN 4.66 µM | MDA-N 2.23 µM | DU-145 5.97 µM | NCI-H226 20.6 µM | T47D 13.6 µM | IGROV-1 3.8 µM | EKVX 10.1 µM | SF-539 5.6 µM | SK-MEL-28 3.54 µM | HCT-116 2.74 µM

C=CCOC(=O)Cn1cnc2c(N)ncnc21
inactive: CCRF-CEM > 100 µM | MCF7 > 100 µM | Hs-578T > 100 µM | MDA-MB-435 > 100 µM | UO-31 > 100 µM | SR > 100 µM | ACHN > 100 µM | MDA-N > 100 µM | DU-145 > 100 µM | NCI-H226 > 100 µM | COLO 205 > 100 µM | T47D > 100 µM | IGROV-1 > 100 µM | EKVX > 100 µM | SF-539 > 100 µM | SK-MEL-28 > 100 µM | SNB-75 > 100 µM | HCT-116 > 100 µM

COC(C)(C)[C@@H]1CCCN1C1=C(C)C(=O)OC1
inactive: CCRF-CEM > 100 µM | OVCAR-5 > 100 µM | MCF7 > 100 µM | Hs-578T > 100 µM | UO-31 > 100 µM | SR > 100 µM | ACHN > 100 µM | MDA-N > 100 µM | DU-145 > 100 µM | COLO 205 > 100 µM | T47D > 100 µM | IGROV-1 > 100 µM | SF-539 > 100 µM | SNB-75 > 10 µM | HCT-116 > 100 µM

CCOC(=O)/C(C#N)=C/c1ccc(CO)o1
inactive: OVCAR-5 > 100 µM | MCF7 > 100 µM | Hs-578T > 100 µM | MDA-MB-435 > 100 µM | SR > 100 µM | ACHN > 100 µM | MDA-N > 100 µM | DU-145 > 100 µM | NCI-H226 > 100 µM | COLO 205 > 100 µM | T47D > 100 µM | IGROV-1 > 100 µM | EKVX > 100 µM | SF-539 > 100 µM | SK-MEL-28 > 100 µM | SNB-75 > 100 µM | HCT-116 > 100 µM

O=C(NCCO)Nc1c(C(F)(F)F)cc(-c2ccccc2)[nH]c1=O
inactive: CCRF-CEM > 100 µM | OVCAR-5 > 100 µM | MCF7 > 100 µM | MDA-MB-435 > 100 µM | UO-31 > 100 µM | ACHN > 100 µM | BT-549 > 100 µM | MDA-N > 100 µM | DU-145 > 100 µM | NCI-H226 > 100 µM | COLO 205 > 100 µM | T47D > 100 µM | IGROV-1 > 100 µM | EKVX > 100 µM | SK-MEL-28 > 100 µM | HCT-116 > 100 µM

CC(=O)NC(CCC(=O)OC(C)(C)C)C(=O)NC(CCC(=O)OC(C)(C)C)C(=O)NC(Cc1ccc([N+](=O)[O-])cc1)C(=O)NC(CCCCNC(=O)OC(C)(C)C)C(=O)NC(CCCCNC(=O)OC(C)(C)C)C(=O)NCC(=O)O (centres undefined) (Ac-E(OtBu)E(OtBu)[Phe(4-NO2)]K(Boc)K(Boc)G-OH; configuration not given here)
inactive: CCRF-CEM > 100 µM | OVCAR-5 > 100 µM | MCF7 > 100 µM | MDA-MB-435 > 100 µM | UO-31 > 100 µM | SR > 100 µM | ACHN > 100 µM | MDA-N > 100 µM | DU-145 > 100 µM | NCI-H226 > 100 µM | COLO 205 > 100 µM | T47D > 100 µM | IGROV-1 > 100 µM | EKVX > 100 µM | SF-539 > 100 µM | SK-MEL-28 > 100 µM | SNB-75 > 100 µM | HCT-116 > 100 µM
